Five compounds from US9309242B2, “Substituted pyrido[2,3-b]pyrazines as FGFR kinase inhibitors” (priority 2011, dated 2016) can be followed below.

One data set deals with FGFR1 (h) (Homo sapiens, UniProt P11362). In words: FGFR1 (enzymatic assay), TR-FRET. It is filed as biochemical. The following applies: average values if tested multiple times, read-out: FGFR 1 pIC50 (converted). (Time-resolved FRET reads energy transfer from a long-lived donor to a nearby acceptor.)
The target in the next data set is FGFR2 (h) (Homo sapiens, UniProt P21802). The data set is described as follows: FGFR2 (enzymatic assay), TR-FRET. The following applies: enzymatic assay; average values if tested multiple times; read-out: FGFR 2 pIC50 (converted). The format is biochemical. The essentials:
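At low ATP (0.4 μM), enzyme activity of human FGFR2 (150 ng/ml) toward biotinylated Flt3 substrate (500 nM) was followed with test compound present. Reactions ran in 50 mM HEPES pH 7.5, 6 mM MnCl2, 1 mM DTT, 0.1 mM Na3VO4, 0.01% Triton-X-100, 1% DMSO.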

Another data set has as its target FGFR3 (h) (Homo sapiens, UniProt P22607). In words: FGFR3 (enzymatic assay), TR-FRET. The format is biochemical. Conditions: average values if tested multiple times, read-out: FGFR 3 pIC50 (converted). An excerpt:
Time-Resolved Fluorescence Resonance Energy Transfer (TR-FRET) signal (ex340 nm.

A further data set addresses FGFR4 (h) (Homo sapiens, UniProt P22455). The data set is described as follows: FGFR4 (enzymatic assay), TR-FRET. The format is biochemical. Conditions: FGFR 4 pIC50, enzymatic assay; average values if tested multiple times.
Another data set deals with KDR (h) (Homo sapiens, UniProt P35968). In words: KDR (VEGFR2) (enzymatic assay), TR-FRET. It is filed as biochemical. Conditions: read-out: VEGFR 2 (KDR) pIC50 (converted). The essentials:
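3 μM ATP, 500 nM Btn-Flt3 substrate, 150 ng/ml kinase; HEPES pH 7.5 with MnCl2, DTT, vanadate, Triton; 1% DMSO. 120 min RT. Stop: EDTA + Eu-anti-P-Tyr + SA-XL-665, 60 min RT. Readout TR-FRET ex340/em620, 655 nm, RFU.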

The target in data set [1] is T1, Ba/F3-FGFR1-transfected cells (Homo sapiens, UniProt P11362).
T1 construct: BAF3-FGFR1 (MIN IL3) pIC50; other: minus IL3
T1 sequence (P11362 whole entry, change not shown): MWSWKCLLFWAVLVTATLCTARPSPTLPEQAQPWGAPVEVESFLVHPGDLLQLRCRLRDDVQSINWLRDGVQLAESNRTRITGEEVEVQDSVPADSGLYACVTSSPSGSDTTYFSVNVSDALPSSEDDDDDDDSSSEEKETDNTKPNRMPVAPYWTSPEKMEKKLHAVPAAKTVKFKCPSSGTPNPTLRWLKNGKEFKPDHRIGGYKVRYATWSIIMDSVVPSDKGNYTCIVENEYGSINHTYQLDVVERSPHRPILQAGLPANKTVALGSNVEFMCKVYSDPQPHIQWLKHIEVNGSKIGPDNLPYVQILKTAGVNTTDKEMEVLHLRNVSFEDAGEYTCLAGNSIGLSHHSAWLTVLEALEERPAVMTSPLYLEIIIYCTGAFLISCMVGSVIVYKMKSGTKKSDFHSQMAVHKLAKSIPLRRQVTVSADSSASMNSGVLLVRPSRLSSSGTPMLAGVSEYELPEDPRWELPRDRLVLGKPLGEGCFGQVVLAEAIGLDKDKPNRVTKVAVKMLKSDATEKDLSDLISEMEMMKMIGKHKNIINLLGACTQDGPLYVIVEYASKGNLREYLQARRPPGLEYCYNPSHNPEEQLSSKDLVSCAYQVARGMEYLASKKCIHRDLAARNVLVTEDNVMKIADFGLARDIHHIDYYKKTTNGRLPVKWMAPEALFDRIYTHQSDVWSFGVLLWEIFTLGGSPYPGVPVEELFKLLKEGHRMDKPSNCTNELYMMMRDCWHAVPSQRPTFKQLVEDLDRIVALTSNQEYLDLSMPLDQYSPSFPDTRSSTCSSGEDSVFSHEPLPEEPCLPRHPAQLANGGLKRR
The data set is described as follows: Ba/F3-FGFR1 (minus IL3) cellular proliferation assay, Alamar Blue. It is filed as cell-based. The essentials: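 Ba/F3-FGFR1 cells (20000 per well) were exposed to compound for 24 h at 37 °C in RPMI-1640 with 10% FBS. Alamar Blue (resazurin) was then added for 4 h, and fluorescence was read at ex 540/em 590 nm.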

Data set [2] concerns Ba/F3-FGFR1-transfected cells. The data set is described as follows: Ba/F3-FGFR1 (plus IL3) cellular proliferation assay, counterscreen with 10 ng/ml murine IL3. Conditions: plus IL3 (10 ng/ml murine IL3, counterscreen); for IC50: read-out: BAF3-FGFR1 (PLUS IL3) pIC50 (converted). The format is cell-based. The essentials:
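Proliferation read-out: resazurin-based Alamar Blue fluorescence (540/590 nm) after 4 h, following 24 h compound treatment of 20000 Ba/F3-FGFR1 cells per well in 10% FBS RPMI at 37° C. IL3 counterscreen used the same protocol plus 10 ng/ml murine IL3.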
On the technique in general: A counterscreen serves to expose hits that act by an unwanted route or on another target.

Data set [3] concerns the target T2, Ba/F3-FGFR3-transfected cells (Homo sapiens, UniProt P22607).
T2 construct: BAF3-FGFR3 (MIN IL3) pIC50; other: minus IL3
In words: Ba/F3-FGFR3 (minus IL3) cellular proliferation assay, Alamar Blue. The format is cell-based. The essentials: (§1)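 Ba/F3 cells transfected with FGFR3, 20000/well in phenol red-free RPMI-1640 with 10% FBS, exposed to compound for 24 h at 37 °C, 5% CO2. Alamar Blue (resazurin) added for 4 h more; fluorescence read at ex 540/em 590 nm. Counterscreen run the same way with 10 ng/ml murine IL3.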
Background: Alamar Blue is a resazurin reagent that responds to reducing activity.

Data set [4] deals with Ba/F3-FGFR3-transfected cells. In words: Ba/F3-FGFR3 (plus IL3) cellular proliferation assay, counterscreen with 10 ng/ml murine IL3. The format is cell-based. Conditions: plus IL3 (10 ng/ml murine IL3, counterscreen); for IC50: read-out: BAF3-FGFR3 (PLUS IL3) pIC50 (converted). In outline: as §1
For data set [5], the target named is T3, Ba/F3-KDR-transfected cells (Homo sapiens, UniProt P35968).
T3 construct: BAF3-KDR (MIN IL3) pIC50; other: minus IL3
T3 sequence (P35968 whole entry, change not shown): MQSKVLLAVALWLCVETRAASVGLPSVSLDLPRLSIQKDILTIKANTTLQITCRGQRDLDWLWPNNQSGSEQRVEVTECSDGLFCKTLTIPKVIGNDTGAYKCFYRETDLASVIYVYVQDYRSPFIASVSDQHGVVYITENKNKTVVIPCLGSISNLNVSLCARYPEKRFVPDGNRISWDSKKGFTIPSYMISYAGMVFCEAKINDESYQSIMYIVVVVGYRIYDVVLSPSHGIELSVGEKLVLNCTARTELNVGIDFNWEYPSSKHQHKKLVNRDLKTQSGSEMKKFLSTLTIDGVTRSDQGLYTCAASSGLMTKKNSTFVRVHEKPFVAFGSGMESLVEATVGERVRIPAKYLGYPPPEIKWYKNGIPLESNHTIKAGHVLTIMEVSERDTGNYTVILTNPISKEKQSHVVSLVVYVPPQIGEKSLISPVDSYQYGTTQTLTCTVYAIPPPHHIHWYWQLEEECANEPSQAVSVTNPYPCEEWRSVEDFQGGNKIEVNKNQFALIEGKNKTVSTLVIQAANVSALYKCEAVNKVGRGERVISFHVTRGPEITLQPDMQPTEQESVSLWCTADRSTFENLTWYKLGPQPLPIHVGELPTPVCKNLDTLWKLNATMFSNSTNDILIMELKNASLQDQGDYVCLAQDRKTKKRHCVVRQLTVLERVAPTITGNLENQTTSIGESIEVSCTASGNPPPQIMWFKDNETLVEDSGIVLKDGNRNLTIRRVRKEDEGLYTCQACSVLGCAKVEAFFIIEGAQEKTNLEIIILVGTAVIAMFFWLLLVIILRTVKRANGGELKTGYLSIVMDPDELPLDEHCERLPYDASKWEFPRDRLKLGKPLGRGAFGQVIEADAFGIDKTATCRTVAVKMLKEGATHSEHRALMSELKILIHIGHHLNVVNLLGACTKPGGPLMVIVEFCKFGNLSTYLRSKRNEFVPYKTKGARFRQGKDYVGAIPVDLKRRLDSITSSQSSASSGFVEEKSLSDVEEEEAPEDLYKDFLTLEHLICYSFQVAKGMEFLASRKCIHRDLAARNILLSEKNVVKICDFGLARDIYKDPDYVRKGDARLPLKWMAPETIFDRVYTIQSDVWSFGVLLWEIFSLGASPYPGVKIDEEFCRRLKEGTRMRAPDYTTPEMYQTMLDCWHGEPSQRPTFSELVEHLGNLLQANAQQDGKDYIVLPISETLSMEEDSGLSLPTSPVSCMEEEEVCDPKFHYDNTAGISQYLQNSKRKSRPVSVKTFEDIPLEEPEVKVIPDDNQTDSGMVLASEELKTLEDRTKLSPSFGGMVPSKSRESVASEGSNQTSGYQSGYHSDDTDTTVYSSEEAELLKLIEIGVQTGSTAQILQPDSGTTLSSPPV
The data set is described as follows: Ba/F3-KDR (minus IL3) cellular proliferation assay, Alamar Blue. It is filed as cell-based. The essentials: (§2)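 Read-out: resazurin-based Alamar Blue fluorescence (ex. 540, em. 590 nm) after 4 h. Before that, cells were incubated with compound for 24 h at 37° C. The counterscreen ran identically but with IL3 supplemented.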

The subject of data set [6] is Ba/F3-KDR-transfected cells. The data set is described as follows: Ba/F3-KDR (plus IL3) cellular proliferation assay, counterscreen with 10 ng/ml murine IL3. The format is cell-based. The following applies: plus IL3 (10 ng/ml murine IL3, counterscreen). In outline:
as §2

Data set [7] deals with Ba/F3-FGFR4-transfected cells (Homo sapiens, UniProt P22455). In words: Ba/F3-FGFR4 cellular proliferation assay, Alamar Blue. The format is cell-based. In outline:
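Fluorescence read-out (ex. 540 nm, em. 590 nm) of resazurin-based Alamar Blue after 4 h, following 24 h compound exposure of Ba/F3-FGFR4-transfected cells (20000/well) at 37° C, 5% CO2.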

[8] abbreviates: average values if tested multiple times.

Like-named read-outs stand apart in the source and are kept apart here.

T2 sequence (P22607 whole entry, change not shown): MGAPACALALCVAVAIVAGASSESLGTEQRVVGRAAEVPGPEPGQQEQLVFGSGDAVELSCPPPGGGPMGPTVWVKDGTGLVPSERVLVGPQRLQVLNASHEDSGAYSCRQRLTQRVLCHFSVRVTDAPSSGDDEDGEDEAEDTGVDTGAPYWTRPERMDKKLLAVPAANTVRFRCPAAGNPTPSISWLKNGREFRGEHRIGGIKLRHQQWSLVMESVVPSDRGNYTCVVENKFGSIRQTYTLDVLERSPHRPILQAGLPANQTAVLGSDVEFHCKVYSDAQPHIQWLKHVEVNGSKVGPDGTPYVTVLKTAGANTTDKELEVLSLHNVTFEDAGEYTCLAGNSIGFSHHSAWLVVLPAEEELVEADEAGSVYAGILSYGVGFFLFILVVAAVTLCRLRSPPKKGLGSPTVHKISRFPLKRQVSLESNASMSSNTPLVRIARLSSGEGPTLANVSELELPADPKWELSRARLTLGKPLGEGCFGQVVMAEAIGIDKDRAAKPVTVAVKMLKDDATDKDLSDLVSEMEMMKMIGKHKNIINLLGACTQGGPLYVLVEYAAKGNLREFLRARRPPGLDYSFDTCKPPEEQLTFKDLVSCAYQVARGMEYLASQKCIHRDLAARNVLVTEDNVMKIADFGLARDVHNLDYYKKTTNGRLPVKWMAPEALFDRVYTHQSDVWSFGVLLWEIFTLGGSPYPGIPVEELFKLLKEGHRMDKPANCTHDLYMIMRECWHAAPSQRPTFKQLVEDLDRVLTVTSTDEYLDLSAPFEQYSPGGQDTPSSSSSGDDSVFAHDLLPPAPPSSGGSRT
Chain of FGFR3 (h) (P22607 23-806): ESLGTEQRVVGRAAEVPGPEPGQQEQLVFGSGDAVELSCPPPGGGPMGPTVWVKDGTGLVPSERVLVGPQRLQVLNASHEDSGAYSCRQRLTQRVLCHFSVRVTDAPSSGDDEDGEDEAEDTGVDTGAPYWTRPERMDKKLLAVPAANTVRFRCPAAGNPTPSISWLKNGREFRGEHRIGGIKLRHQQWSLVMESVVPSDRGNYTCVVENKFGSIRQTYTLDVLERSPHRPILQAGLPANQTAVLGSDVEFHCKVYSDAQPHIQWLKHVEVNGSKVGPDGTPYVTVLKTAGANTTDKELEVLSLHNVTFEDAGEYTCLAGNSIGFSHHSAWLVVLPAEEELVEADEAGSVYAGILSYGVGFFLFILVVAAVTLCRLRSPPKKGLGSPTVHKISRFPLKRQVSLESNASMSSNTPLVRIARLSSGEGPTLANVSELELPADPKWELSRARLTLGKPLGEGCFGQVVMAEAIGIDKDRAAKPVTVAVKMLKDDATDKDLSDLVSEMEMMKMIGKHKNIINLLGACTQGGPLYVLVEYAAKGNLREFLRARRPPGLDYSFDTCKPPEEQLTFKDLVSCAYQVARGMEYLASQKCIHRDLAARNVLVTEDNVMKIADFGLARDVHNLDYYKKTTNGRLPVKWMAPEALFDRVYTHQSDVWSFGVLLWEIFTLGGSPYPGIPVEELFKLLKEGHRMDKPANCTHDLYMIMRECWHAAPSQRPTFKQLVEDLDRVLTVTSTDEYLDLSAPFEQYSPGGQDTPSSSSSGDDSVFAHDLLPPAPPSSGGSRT
Chain of FGFR4 (h) (P22455 22-802): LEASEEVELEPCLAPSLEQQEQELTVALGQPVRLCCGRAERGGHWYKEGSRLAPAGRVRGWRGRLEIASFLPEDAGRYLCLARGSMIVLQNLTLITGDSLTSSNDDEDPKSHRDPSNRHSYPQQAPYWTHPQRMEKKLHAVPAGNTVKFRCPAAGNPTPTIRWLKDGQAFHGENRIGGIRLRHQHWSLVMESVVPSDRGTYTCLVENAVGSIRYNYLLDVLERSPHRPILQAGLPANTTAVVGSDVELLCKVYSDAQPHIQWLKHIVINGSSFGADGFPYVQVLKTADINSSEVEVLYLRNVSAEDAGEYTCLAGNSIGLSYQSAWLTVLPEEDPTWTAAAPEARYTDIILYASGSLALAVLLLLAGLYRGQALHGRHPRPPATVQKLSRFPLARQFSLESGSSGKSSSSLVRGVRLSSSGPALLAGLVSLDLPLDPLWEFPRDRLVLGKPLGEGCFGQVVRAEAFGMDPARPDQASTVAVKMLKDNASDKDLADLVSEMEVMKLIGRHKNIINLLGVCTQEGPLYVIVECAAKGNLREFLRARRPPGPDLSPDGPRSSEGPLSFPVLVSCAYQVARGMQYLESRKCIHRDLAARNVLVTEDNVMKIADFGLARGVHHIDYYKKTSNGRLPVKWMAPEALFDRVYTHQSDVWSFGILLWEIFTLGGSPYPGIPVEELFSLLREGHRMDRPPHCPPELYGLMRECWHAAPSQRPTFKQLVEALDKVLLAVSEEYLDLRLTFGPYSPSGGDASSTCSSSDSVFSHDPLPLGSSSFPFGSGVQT

As usually defined, the melting point is the temperature, or range, at which the solid turns liquid. The compound `COc1cc(OC)cc(N(CC2CCC(=O)N2)c2ccc3ncc(-c4cnn(C)c4)nc3n2)c1` (stereo not drawn) [Compound 54] gave a melting point of 125 °C. In addition, the IC50 on FGFR1 (h) is 6.76 nM. On FGFR2 (h), the IC50 was 4.9 nM. The IC50 at FGFR3 (h) is 3.02 nM. The compound further showed an IC50 against FGFR4 (h) of 17.4 nM. Also, the IC50 on KDR (h) (setting [8]) is 66.1 nM. Also, in data set [1], the “BAF3-FGFR1 (MIN IL3) pIC50” value stood at 6.64. Moreover, the “BAF3-FGFR1 (PLUS IL3) pIC50” value in data set [2] was <5. Further, in data set [3], the “BAF3-FGFR3 (MIN IL3) pIC50” value came to 6.83. Moreover, in data set [4], the “BAF3-FGFR3 (PLUS IL3) pIC50” value is listed as <5. For the same compound, the “BAF3-KDR (MIN IL3) pIC50” value in data set [5] is recorded as 5.39. For the same compound, the “BAF3-KDR (PLUS IL3) pIC50” value in [6] is <5. Besides, the “BAF3-FGFR4 pIC50” value in data set [7] is given as 6.05.
Turning to `COc1cc(OC)c(F)c(/N=c2\ccc3ncc(-c4cnn(C)c4)nc3n2CCCO)c1F` (single isomer, unassigned) [Compound 17], the melting point was 206 °C. Also, the IC50 on FGFR1 (h) is 0.251 nM. In addition, the IC50 on FGFR2 (h) is 1.26 nM. The IC50 at FGFR3 (h) is 0.398 nM. Besides, the IC50 at FGFR4 (h) is 0.501 nM. The IC50 on KDR (h) (setting [8]) was 3.98 nM. Also, the “BAF3-FGFR1 (MIN IL3) pIC50” value in data set [1] was found to be 8.7. The IC50 in data set [2] was > 10000 nM. The “BAF3-FGFR3 (MIN IL3) pIC50” value in data set [3] turned out to be 8.6. In addition, the IC50 in [4] was > 10000 nM. In addition, the “BAF3-KDR (MIN IL3) pIC50” value in data set [5] was 6.8.
For the compound `COc1cc(OC)c(F)c(/N=c2\ccc3ncc(-c4cnn(C)c4)nc3n2CC2CCC(=O)N2)c1F` (stereo not drawn) [Compound 47], the melting point stood at 169 °C. The IC50 at FGFR1 (h) is 0.661 nM. Moreover, the IC50 at FGFR2 (h) was 1.41 nM. The IC50 at FGFR3 (h) is ~0.933 nM. On FGFR4 (h), this compound gave an IC50 of 1.45 nM. In addition, the IC50 at KDR (h) (setting [8]) is 12.6 nM. Besides, in data set [1], the “BAF3-FGFR1 (MIN IL3) pIC50” value stood at 7.86. In addition, the “BAF3-FGFR1 (PLUS IL3) pIC50” value in data set [2] was <5. The “BAF3-FGFR3 (MIN IL3) pIC50” value in data set [3] is given as ~7.76. The “BAF3-FGFR3 (PLUS IL3) pIC50” value in data set [4] is listed as <5. The “BAF3-KDR (MIN IL3) pIC50” value in data set [5] is 6.28. Further, the “BAF3-KDR (PLUS IL3) pIC50” value in data set [6] is reported as <5. The “BAF3-FGFR4 pIC50” value in [7] came to 6.70.
For `COc1cc(OC)cc(N(CCNC(C)=O)c2ccc3ncc(-c4cnn(C)c4)nc3n2)c1` [Compound 235], the melting point turned out to be 193 °C. At KDR (h), the IC50 was 79.4 nM. In addition, the IC50 in [2] was > 10000 nM. Moreover, in data set [4], the IC50 is > 10000 nM. For the same compound, the “BAF3-KDR (MIN IL3) pIC50” value in data set [5] is 5.62. The IC50 in [6] (read-out: BAF3-KDR (PLUS IL3) pIC50 (converted)) was > 10000 nM.
As for `CNCCn1/c(=N/c2c(F)c(OC)cc(OC)c2F)ccc2ncc(-c3cnn(C)c3)nc21` [Compound 4], the melting point is 174 °C. Moreover, on FGFR1 (h), the IC50 is 1.26 nM. Also, at FGFR2 (h), the IC50 was 3.98 nM. In addition, the IC50 at FGFR3 (h) was 3.16 nM. Further, the IC50 at FGFR4 (h) is 7.94 nM. Besides, the IC50 at KDR (h) (setting [8]) is 63.1 nM. In data set [1], the “BAF3-FGFR1 (MIN IL3) pIC50” value is 7.3. For the same compound, the IC50 in data set [2] is > 10000 nM. Moreover, the “BAF3-FGFR3 (MIN IL3) pIC50” value in data set [3] amounted to 6.9. Moreover, the IC50 in data set [4] was > 10000 nM. Besides, the “BAF3-KDR (MIN IL3) pIC50” value in data set [5] is 5.4.
